Assay: xn = mol fraction of the nth substance listed
Conditions: Liquid, Bellows volumetry

C=CC [propene] + Cc1ccccc1
Conditions | mass density [kg/m3]
295.7 K, 700 kPa, x1 = 0.53 | 679.7
295.7 K, 1000 kPa, x1 = 0.53 | 680.5
295.7 K, 1400 kPa, x1 = 0.53 | 681.2
295.7 K, 1900 kPa, x1 = 0.53 | 681.6
295.7 K, 2300 kPa, x1 = 0.53 | 682.4
295.7 K, 2900 kPa, x1 = 0.53 | 683.2
295.7 K, 3400 kPa, x1 = 0.53 | 684
295.7 K, 3600 kPa, x1 = 0.53 | 684
295.7 K, 5200 kPa, x1 = 0.53 | 685.5
295.7 K, 7300 kPa, x1 = 0.53 | 688.3
295.7 K, 8600 kPa, x1 = 0.53 | 689.5
295.7 K, 10700 kPa, x1 = 0.53 | 691.9
295.7 K, 13500 kPa, x1 = 0.53 | 694.7
295.7 K, 23900 kPa, x1 = 0.53 | 704.6
295.7 K, 31000 kPa, x1 = 0.53 | 710.9
295.7 K, 37900 kPa, x1 = 0.53 | 716
295.7 K, 44100 kPa, x1 = 0.53 | 720.7
295.7 K, 51800 kPa, x1 = 0.53 | 726.4
295.7 K, 58300 kPa, x1 = 0.53 | 730.4
295.7 K, 63200 kPa, x1 = 0.53 | 733.6
295.7 K, 67000 kPa, x1 = 0.53 | 735.9
295.9 K, 200 kPa, x1 = 0.1159 | 797.6
295.9 K, 300 kPa, x1 = 0.1159 | 798.9
295.9 K, 600 kPa, x1 = 0.1159 | 799.5
295.9 K, 1300 kPa, x1 = 0.1159 | 800.1
295.9 K, 2000 kPa, x1 = 0.1159 | 800.7
295.9 K, 3500 kPa, x1 = 0.1159 | 802
295.9 K, 7200 kPa, x1 = 0.1159 | 805.2
295.9 K, 10200 kPa, x1 = 0.1159 | 807.7
295.9 K, 13500 kPa, x1 = 0.1159 | 810.3
296.4 K, 1000 kPa, x1 = 0.7612 | 606.8
296.4 K, 1400 kPa, x1 = 0.7612 | 610
296.4 K, 2200 kPa, x1 = 0.7612 | 611.2
296.4 K, 3300 kPa, x1 = 0.7612 | 613.2
296.4 K, 5200 kPa, x1 = 0.7612 | 616.4
296.4 K, 6900 kPa, x1 = 0.7612 | 619.3
296.4 K, 10300 kPa, x1 = 0.7612 | 624.6
296.4 K, 10400 kPa, x1 = 0.7612 | 624.6
296.4 K, 13800 kPa, x1 = 0.7612 | 629.7
296.4 K, 17200 kPa, x1 = 0.7612 | 634.4
296.4 K, 24100 kPa, x1 = 0.7612 | 643.5
296.4 K, 31100 kPa, x1 = 0.7612 | 652.1
296.4 K, 37700 kPa, x1 = 0.7612 | 659.4
296.4 K, 44500 kPa, x1 = 0.7612 | 666
296.4 K, 51400 kPa, x1 = 0.7612 | 672.7
296.4 K, 57800 kPa, x1 = 0.7612 | 678
296.4 K, 62900 kPa, x1 = 0.7612 | 682
296.4 K, 66900 kPa, x1 = 0.7612 | 685
324.6 K, 1700 kPa, x1 = 0.7612 | 572
324.6 K, 1900 kPa, x1 = 0.7612 | 572.3
324.6 K, 2600 kPa, x1 = 0.7612 | 574.4
324.6 K, 3600 kPa, x1 = 0.7612 | 576.9
324.6 K, 5300 kPa, x1 = 0.7612 | 580.5
324.6 K, 7000 kPa, x1 = 0.7612 | 584.1
324.6 K, 10500 kPa, x1 = 0.7612 | 591.1
324.6 K, 17400 kPa, x1 = 0.7612 | 603.7
324.6 K, 24200 kPa, x1 = 0.7612 | 614.4
324.6 K, 30900 kPa, x1 = 0.7612 | 623.8
324.6 K, 37800 kPa, x1 = 0.7612 | 632.7
324.6 K, 44500 kPa, x1 = 0.7612 | 640.5
324.6 K, 51500 kPa, x1 = 0.7612 | 648.4
324.6 K, 58400 kPa, x1 = 0.7612 | 655.7
324.6 K, 63100 kPa, x1 = 0.7612 | 660.3
324.6 K, 67000 kPa, x1 = 0.7612 | 664.1
324.8 K, 300 kPa, x1 = 0.1159 | 771
324.8 K, 600 kPa, x1 = 0.1159 | 771.6
324.8 K, 1100 kPa, x1 = 0.1159 | 772.2
324.8 K, 1600 kPa, x1 = 0.1159 | 772.8
324.8 K, 2000 kPa, x1 = 0.1159 | 773.4
324.8 K, 2500 kPa, x1 = 0.1159 | 774
324.8 K, 3300 kPa, x1 = 0.1159 | 774.6
324.8 K, 5000 kPa, x1 = 0.1159 | 776.3
324.8 K, 7000 kPa, x1 = 0.1159 | 778.7
324.8 K, 10200 kPa, x1 = 0.1159 | 781.7
324.8 K, 13500 kPa, x1 = 0.1159 | 784.7
324.8 K, 16900 kPa, x1 = 0.1159 | 787.7
324.8 K, 20400 kPa, x1 = 0.1159 | 791.4
324.8 K, 23600 kPa, x1 = 0.1159 | 793.9
324.8 K, 31300 kPa, x1 = 0.1159 | 800.7
324.8 K, 37800 kPa, x1 = 0.1159 | 805.8
374.3 K, 3700 kPa, x1 = 0.7612 | 493.5
374.3 K, 3800 kPa, x1 = 0.7612 | 494.1
374.3 K, 5300 kPa, x1 = 0.7612 | 503.1
374.3 K, 6900 kPa, x1 = 0.7612 | 511.6
374.3 K, 8400 kPa, x1 = 0.7612 | 518.3
374.3 K, 10400 kPa, x1 = 0.7612 | 526
374.3 K, 17200 kPa, x1 = 0.7612 | 547.4
374.3 K, 23900 kPa, x1 = 0.7612 | 562.2
374.3 K, 30800 kPa, x1 = 0.7612 | 574.7
374.3 K, 37700 kPa, x1 = 0.7612 | 586.8
374.3 K, 44200 kPa, x1 = 0.7612 | 596.6
375.3 K, 700 kPa, x1 = 0.1159 | 723.9
375.3 K, 900 kPa, x1 = 0.1159 | 724.4
375.3 K, 1400 kPa, x1 = 0.1159 | 725.5
375.3 K, 2000 kPa, x1 = 0.1159 | 726.5
375.3 K, 2500 kPa, x1 = 0.1159 | 727.6
375.3 K, 3400 kPa, x1 = 0.1159 | 728.6
375.3 K, 5200 kPa, x1 = 0.1159 | 731.2
375.3 K, 6900 kPa, x1 = 0.1159 | 733.8
375.3 K, 10100 kPa, x1 = 0.1159 | 737.6
375.3 K, 17200 kPa, x1 = 0.1159 | 746.2
375.3 K, 23700 kPa, x1 = 0.1159 | 753.4
375.3 K, 30800 kPa, x1 = 0.1159 | 760.7
375.3 K, 37600 kPa, x1 = 0.1159 | 767
375.4 K, 2600 kPa, x1 = 0.53 | 588.6
375.4 K, 2900 kPa, x1 = 0.53 | 589.8
375.4 K, 4300 kPa, x1 = 0.53 | 593.6
375.4 K, 6900 kPa, x1 = 0.53 | 600.6
375.4 K, 9200 kPa, x1 = 0.53 | 607.4
375.4 K, 10500 kPa, x1 = 0.53 | 609.9
375.4 K, 17900 kPa, x1 = 0.53 | 622.3
375.4 K, 23800 kPa, x1 = 0.53 | 632
375.4 K, 24100 kPa, x1 = 0.53 | 631.5
375.4 K, 30900 kPa, x1 = 0.53 | 641.7
375.4 K, 37900 kPa, x1 = 0.53 | 651.5
375.4 K, 44800 kPa, x1 = 0.53 | 659.4
375.4 K, 51200 kPa, x1 = 0.53 | 666.4
375.4 K, 58800 kPa, x1 = 0.53 | 674.3
375.4 K, 63200 kPa, x1 = 0.53 | 678.1
375.4 K, 67400 kPa, x1 = 0.53 | 682

Source: the NIST ThermoML archive (doi:10.1016/j.fluid.2017.06.022)
